Patent US20080261821A1, “Mechanism-Based Crosslinkers” (THE REGENTS OF TE UNIVERSITY OF CALIFORNIA, priority 2004, published 2008)
The star is where a group is joined. Biotin = O=C1N[C@H]2[C@H](CS[C@H]2CCCCC(=O)*)N1; Ahx = NCCCCCC(=O)O

Legend:
His 6-tagged human Akt1 = biological target: T1, His 6-tagged human Akt1 (Homo sapiens, UniProt P31749); assay: Crosslinking reactions with AKT1 (SDS-PAGE, streptavidin-HRP blot); type: biochemical; conditions: for crosslinking of peptide to AKT1 (formation of the peptide-AKT1 complex): peptide incubated with AKT1 in the presence of dialdehyde crosslinker 2, FIG. 2A
T1 construct: purchased Calbiochem
Experimental: His 6-tagged human Akt1 (10 ng), 1 μM peptide 3 or 4, and 20 µM crosslinker 2 were incubated in 30 μL of 25 mM HEPES (pH=7.5), 150 mM NaCl, 2 mM MgCl2, 20 μM BME for 20 min at rt. After 20 min, 6 μL of 6× loading buffer was added to quench the reactions. The sample mixtures (10 μL) were resolved by 8-16% SDS-PAGE, transferred to nitrocellulose, and the membrane was probed with streptavidin-HRP.
To evaluate dialdehyde 2 as a mechanism-based crosslinker, a set of peptide substrate derivatives with and without an engineered cysteine (biotin-ZRPRTSSF-OH 3, fluorescein-ZZRPRTSSF-OH 4, biotin-ZRPRTSCF-OH 5 and fluorescein-ZZRPRTSCF—OH 6) were incubated with the kinase, AKT1 (Alessi et al., FEBS Lett. 399: 333-338 (1996)). […] As expected, the peptide-AKT1 covalent complex runs at a slightly higher molecular weight than unmodified AKT1 on SDS-PAGE.

AKT kinase = biological target: T2, AKT kinase (Homo sapiens, UniProt P31749); assay: Kinase cell lysate crosslinking (avidin-agarose pull-down, anti-AKT blot); type: biochemical; conditions: 100 ng AKT kinase, 2 μg HeLa cell lysate; for anti-AKT signal after avidin-agarose pull-down of the biotinylated substrate: 1 μM substrate, 100 μM crosslinker 2, 90 minutes
T2 construct: host or cells: added to HeLa cell lysate
Experimental: Kinase cell lysate crosslinking details: 1 μM of Akt substrate (Biotin-PEG-RPRTSCF-OH) and 100 ng of AKT kinase was added to 2 μg of HeLa cell lysate. 100 μM of the crosslinker 2 was added to cell lysate and the reaction was allowed to proceed for 90 minutes. The lysate were poured over avidin-agarose beads and the beads were washed with wash buffer. The bound protein was eluted from the agarose beads with loading buffer and then subjected to SDS-PAGE. The gel was transferred to nitrocellulose and probed with anti-AKT. […] As a control, the non-cysteine containing AKT substrate (Biotin-PEG-RPRTSSF-OH) was used in the crosslinking reaction described above. No signal was observed.

T2 sequence (P31749 whole entry): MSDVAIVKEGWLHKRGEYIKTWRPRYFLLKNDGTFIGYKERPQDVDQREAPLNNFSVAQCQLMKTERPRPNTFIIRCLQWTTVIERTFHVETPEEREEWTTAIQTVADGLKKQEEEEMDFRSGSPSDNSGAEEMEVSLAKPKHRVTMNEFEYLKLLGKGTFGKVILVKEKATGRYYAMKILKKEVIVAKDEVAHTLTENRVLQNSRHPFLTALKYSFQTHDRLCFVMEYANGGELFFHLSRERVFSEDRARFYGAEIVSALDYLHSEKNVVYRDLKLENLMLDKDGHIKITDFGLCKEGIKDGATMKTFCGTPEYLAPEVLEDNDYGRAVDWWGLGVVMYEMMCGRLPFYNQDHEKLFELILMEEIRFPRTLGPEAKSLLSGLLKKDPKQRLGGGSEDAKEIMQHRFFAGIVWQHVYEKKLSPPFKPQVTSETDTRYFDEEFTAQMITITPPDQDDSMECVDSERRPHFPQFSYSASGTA
T1 sequence (P31749 whole entry): as above

Compound	anti-AKT signal after avidin-agarose pull-down of the biotinylated substrate (AKT kinase)	crosslinking of peptide to AKT1 (formation of the peptide-AKT1 complex) (His 6-tagged human Akt1)	further results
Nc1ncnc2c1ncn2C1OC(COC(=O)c2ccc(C=O)c(C=O)c2)C(O)C1O (stereo not shown) [dialdehyde 2]	–	–	crosslinking of AKT1 and peptide by the crosslinker (formation of the peptide-AKT1 complex) (His 6-tagged human Akt1; dialdehyde 2 incubated with cysteine-containing peptide 5 and AKT1, FIG. 2A lane 2): rapid formation of the peptide-AKT1 complex was observed; anti-AKT signal after crosslinking in cell lysate by the crosslinker (AKT kinase; 100 μM crosslinker 2 with 1 μM Biotin-PEG-RPRTSCF-OH, 90 minutes): positive signal
Biotin-PEG-RPRTSCF-OH	positive signal	–	–
Biotin-PEG-RPRTSSF-OH [reference compound]	No signal	–	–
Fluorescein-Ahx-Ahx-Arg-Pro-Arg-Thr-Ser-Cys-Phe-OH ({fluorescein-Ahx-Ahx}-RPRTSCF-OH) [peptide 6]	–	identical results	–
{Biotin-Ahx}-RPRTSCF-OH [peptide 5]	–	rapid formation of the peptide-AKT1 complex was observed	–
{Biotin-Ahx}-RPRTSSF-OH [peptide 3, reference compound]	–	no detectable crosslinking	–
